# Assays:
# [1] = on-resin RCM stapling (Rink amide MBHA), 16 mol% Ru catalyst 1 (Grubbs I), then TFA/TIS/H2O cleavage; conditions: the molecule shown is the open-chain precursor, DCE, 40.0 °C
# [2] = RCM, 10 mol% Ru catalyst 2 (Grubbs II), quenched with ethyl vinyl ether; conditions: DCE, 2.0 mM, 40.0 °C, 4.0 h
# [3] = RCM, 10 mol% Ru catalyst 3 (Hoveyda-Grubbs II), quenched with ethyl vinyl ether; conditions: DCE, 2.0 mM, 40.0 °C, 4.0 h
# [4] = RCM, 10 mol% Z-selective cyclometalated Ru catalyst 7 (Dipp), quenched with ethyl vinyl ether; conditions: DCE, 2.0 mM, 40.0 °C, 4.0 h
# [5] = RCM, 10 mol% Ru catalyst 4 (nitro-Hoveyda/Grela), quenched with ethyl vinyl ether; conditions: DCE, 2.0 mM, 40.0 °C, 4.0 h
# [6] = RCM, 10 mol% Ru catalyst 5 (o-tolyl NHC Hoveyda type), quenched with ethyl vinyl ether; conditions: DCE, 2.0 mM, 40.0 °C, 4.0 h
# [7] = RCM, 10 mol% Ru catalyst 1 (Grubbs I), quenched with ethyl vinyl ether; conditions: DCE, 2.0 mM, 40.0 °C, 4.0 h
# [8] = RCM, 10 mol% Z-selective cyclometalated Ru catalyst 6 (Mes), quenched with ethyl vinyl ether; conditions: DCE, 2.0 mM, 40.0 °C, 4.0 h
# [9] = on-resin RCM stapling (Rink amide MBHA), 16 mol% Ru catalyst 4 (nitro-Hoveyda/Grela), then TFA/TIS/H2O cleavage; conditions: the molecule shown is the open-chain precursor, DCE, 40.0 °C
# [10] = on-resin RCM stapling (Rink amide MBHA), 16 mol% Z-selective Ru catalyst 7 (Dipp), then TFA/TIS/H2O cleavage; conditions: the molecule shown is the open-chain precursor, DCE, 40.0 °C
# [11] = on-resin RCM stapling (Rink amide MBHA), 16 mol% Z-selective Ru catalyst 6 (Mes), then TFA/TIS/H2O cleavage; conditions: the molecule shown is the open-chain precursor, DCE, 40.0 °C
# [12] = on-resin RCM stapling (Rink amide MBHA), 16 mol% Ru catalyst 2 (Grubbs II), then TFA/TIS/H2O cleavage; conditions: the molecule shown is the open-chain precursor, DCE, 40.0 °C
# [13] = on-resin RCM stapling (Rink amide MBHA), 16 mol% Ru catalyst 3 (Hoveyda-Grubbs II), then TFA/TIS/H2O cleavage; conditions: the molecule shown is the open-chain precursor, DCE, 40.0 °C
# [14] = on-resin RCM stapling (Rink amide MBHA), 16 mol% Ru catalyst 5 (o-tolyl NHC Hoveyda type), then TFA/TIS/H2O cleavage; conditions: the molecule shown is the open-chain precursor, DCE, 40.0 °C
# [15] = from C=CCSC[C@H](NC(=O)OC(C)(C)C)C(=O)N[C@@H](CC(C)C)C(=O)N[C@@H](CC(C)C)C(=O)N[C@@H](CSCC=C)C(=O)OC, 18-membered ring
# [16] = from C=CCOC[C@H](NC(=O)OC(C)(C)C)C(=O)N[C@@H](CC(C)C)C(=O)N[C@@H](CC(C)C)C(=O)N[C@@H](COCC=C)C(=O)OC, 18-membered ring
# [17] = from C=CCOc1ccc(C[C@H](NC(=O)OC(C)(C)C)C(=O)N[C@@H](CC(C)C)C(=O)N[C@@H](CC=C)C(=O)OC)cc1, 17-membered ring
# [18] = from C=CCCOc1ccc(C[C@H](NC(=O)OC(C)(C)C)C(=O)N[C@@H](CC(C)C)C(=O)N[C@@H](CC=C)C(=O)OC)cc1, 18-membered ring
# [19] = from C=CCCOc1ccc(C[C@H](NC(=O)OC(C)(C)C)C(=O)N[C@@H](CC(C)C)C(=O)N[C@@H](CCC=C)C(=O)OC)cc1, 19-membered ring
# [20] = from C=CC[C@H](NC(=O)OC(C)(C)C)C(=O)N[C@@H](Cc1cn(S(=O)(=O)c2ccc(C)cc2)cn1)C(=O)NCC(=O)N[C@@H](CC=C)C(=O)OC, 14-membered ring
# [21] = from C=CC[C@H](NC(=O)OC(C)(C)C)C(=O)N[C@@H](CC(C)C)C(=O)N[C@@H](CC(C)C)C(=O)N[C@@H](CC=C)C(=O)OCc1ccccc1, 14-membered ring
# [22] = from C=CC[C@H](NC(=O)CNC(=O)[C@@H]1CCCN1C(=O)[C@H](CC=C)NC(=O)OC(C)(C)C)C(=O)OC, 14-membered ring
compound,measurement,setting,value
C=CCCCCCC[C@@](C)(NC(=O)[C@H](CC(N)=O)NC(=O)[C@@H](NC(=O)OCC1c2ccccc2-c2ccccc21)C(C)C)C(=O)N[C@@H](CCCCN)C(=O)N[C@@H](CCCCN)C(=O)N[C@H](C(=O)N[C@@H](CC(C)C)C(=O)NCC(=O)N[C@@H](CCCCN)C(=O)N[C@@](C)(CCCC=C)C(=O)N[C@H](C(=O)N[C@@H](CCCCN)C(=O)N[C@H](C(=O)N[C@H](C(=O)N[C@@H](CCCCN)C(N)=O)C(C)C)C(C)C)[C@@H](C)CC)[C@@H](C)CC,"ring closure, conversion by HPLC",[1]; 33-membered ring,88%
C=CCCCCCC[C@@](C)(NC(=O)[C@H](Cc1ccccc1)NC(=O)[C@@H](NC(=O)[C@H](CCC(N)=O)NC(=O)[C@H](CCC(N)=O)NC(=O)[C@H](CO)NC(=O)[C@H](CCC(N)=O)NC(=O)OCC1c2ccccc2-c2ccccc21)[C@@H](C)O)C(=O)N[C@@H](CC(N)=O)C(=O)N[C@@H](CC(C)C)C(=O)N[C@@H](Cc1c[nH]c2ccccc12)C(=O)N[C@@H](CCCNC(=N)N)C(=O)N[C@@H](CC(C)C)C(=O)N[C@@H](CC(C)C)C(=O)N[C@@](C)(CCCC=C)C(=O)N[C@@H](CCC(N)=O)C(=O)N[C@@H](CC(N)=O)C(N)=O,"ring closure, conversion by HPLC",[1]; 33-membered ring,92%
C=CCCC[C@](C)(NC(=O)[C@H](Cc1ccccc1)NC(=O)[C@@H](NC(=O)[C@H](Cc1c[nH]cn1)NC(=O)[C@](C)(CCCC=C)NC(=O)[C@H](CCCNC(=N)N)NC(=O)[C@H](CCC(=O)O)NC(=O)[C@H](CC(C)C)NC(=O)[C@H](CCC(=O)O)NC(=O)[C@H](C)NC(=O)OCC1c2ccccc2-c2ccccc21)[C@@H](C)O)C(=O)N[C@@H](CC(C)C)C(=O)N[C@@H](Cc1c[nH]cn1)C(=O)N[C@@H](CCC(N)=O)C(=O)N[C@@H](CCCNC(=N)N)C(N)=O,"ring closure, conversion by HPLC",[1]; 21-membered ring,93%
COC(=O)[C@@H]1CSCC=CCSC[C@H](NC(=O)OC(C)(C)C)C(=O)N[C@@H](CC(C)C)C(=O)N[C@@H](CC(C)C)C(=O)N1 [Boc-Cys(S-allyl)-Leu-Leu-Cys(S-allyl)-OMe],"ring closure, isolated yield",[2]; [15],81%
same,"ring closure, isolated yield",[3]; [15],79%
same,"ring closure, isolated yield",[4]; [15],33%
same,"ring closure, isolated yield",[5]; [15],83%
same,"ring closure, isolated yield",[6]; [15],42%
same,"ring closure, isolated yield",[7]; [15],77%
same,"ring closure, isolated yield",[8]; [15],40%
COC(=O)[C@@H]1COCC=CCOC[C@H](NC(=O)OC(C)(C)C)C(=O)N[C@@H](CC(C)C)C(=O)N[C@@H](CC(C)C)C(=O)N1 [Boc-Ser(O-allyl)-Leu-Leu-Ser(O-allyl)-OMe],"ring closure, isolated yield",[2]; [16],76%
same,"ring closure, isolated yield",[4]; [16],34%
same,"ring closure, isolated yield",[5]; [16],74%
same,"ring closure, isolated yield",[6]; [16],44%
same,"ring closure, isolated yield",[7]; [16],73%
same,"ring closure, isolated yield",[8]; [16],36%
COC(=O)[C@@H]1CC=CCOc2ccc(cc2)C[C@H](NC(=O)OC(C)(C)C)C(=O)N[C@@H](CC(C)C)C(=O)N1 [Boc-Tyr(O-allyl)-Leu-allylGly-OMe],"ring closure, isolated yield",[2]; [17],71%
same,"ring closure, isolated yield",[3]; [17],63%
same,"ring closure, isolated yield",[4]; [17],41%
same,"ring closure, isolated yield",[5]; [17],66%
same,"ring closure, isolated yield",[6]; [17],45%
same,"ring closure, isolated yield",[7]; [17],58%
same,"ring closure, isolated yield",[8]; [17],47%
COC(=O)[C@@H]1CC=CCCOc2ccc(cc2)C[C@H](NC(=O)OC(C)(C)C)C(=O)N[C@@H](CC(C)C)C(=O)N1 [Boc-Tyr(O-homoallyl)-Leu-allylGly-OMe],"ring closure, isolated yield",[2]; [18],61%
same,"ring closure, isolated yield",[3]; [18],55%
same,"ring closure, isolated yield",[4]; [18],17%
same,"ring closure, isolated yield",[5]; [18],60%
same,"ring closure, isolated yield",[6]; [18],24%
same,"ring closure, isolated yield",[7]; [18],54%
same,"ring closure, isolated yield",[8]; [18],21%
COC(=O)[C@@H]1CCC=CCCOc2ccc(cc2)C[C@H](NC(=O)OC(C)(C)C)C(=O)N[C@@H](CC(C)C)C(=O)N1 [Boc-Tyr(O-homoallyl)-Leu-homoallylGly-OMe],"ring closure, isolated yield",[2]; [19],77%
same,"ring closure, isolated yield",[3]; [19],70%
same,"ring closure, isolated yield",[4]; [19],24%
same,"ring closure, isolated yield",[5]; [19],66%
same,"ring closure, isolated yield",[6]; [19],44%
same,"ring closure, isolated yield",[7]; [19],68%
same,"ring closure, isolated yield",[8]; [19],26%
COC(=O)[C@@H]1CC=CC[C@H](NC(=O)OC(C)(C)C)C(=O)N[C@@H](Cc2cn(S(=O)(=O)c3ccc(C)cc3)cn2)C(=O)NCC(=O)N1 [Boc-allylGly-His(Tos)-Gly-allylGly-OMe],"ring closure, isolated yield",[2]; [20],18%
same,"ring closure, isolated yield",[3]; [20],< 10%
same,"ring closure, isolated yield",[5]; [20],12%
same,"ring closure, isolated yield",[6]; [20],< 5%
same,"ring closure, isolated yield",[7]; [20],14%
CC(C)C[C@@H]1NC(=O)[C@@H](NC(=O)OC(C)(C)C)CC=CC[C@@H](C(=O)OCc2ccccc2)NC(=O)[C@H](CC(C)C)NC1=O [Boc-allylGly-Leu-Leu-allylGly-OBn],"ring closure, isolated yield",[2]; [21],74%
same,"ring closure, isolated yield",[3]; [21],61%
same,"ring closure, isolated yield",[4]; [21],30%
same,"ring closure, isolated yield",[5]; [21],64%
same,"ring closure, isolated yield",[6]; [21],39%
same,"ring closure, isolated yield",[7]; [21],70%
same,"ring closure, isolated yield",[8]; [21],32%
COC(=O)[C@@H]1CC=CC[C@H](NC(=O)OC(C)(C)C)C(=O)N2CCC[C@H]2C(=O)NCC(=O)N1 [Boc-allylGly-Pro-Gly-allylGly-OMe],"ring closure, isolated yield",[2]; [22],48%
same,"ring closure, isolated yield",[3]; [22],41%
same,"ring closure, isolated yield",[4]; [22],18%
same,"ring closure, isolated yield",[5]; [22],36%
same,"ring closure, isolated yield",[6]; [22],20%
same,"ring closure, isolated yield",[7]; [22],37%
same,"ring closure, isolated yield",[8]; [22],17%
C=CCCC[C@](C)(NC(=O)[C@H](CC(C)C)NC(=O)[C@H](CC(C)C)NC(=O)[C@H](CC(=O)O)NC(=O)[C@](C)(CCCC=C)NC(=O)[C@H](Cc1ccccc1)NC(=O)[C@@H](NC(=O)[C@@H](NC(=O)OCC1c2ccccc2-c2ccccc21)[C@@H](C)CC)[C@@H](C)O)C(=O)N[C@@H](Cc1ccc(O)cc1)C(=O)N[C@@H](Cc1ccc(O)cc1)C(=O)NCC(=O)N1CCC[C@H]1C(N)=O [Fmoc-Ile-Thr-Phe-S5-Asp-Leu-Leu-S5-Tyr-Tyr-Gly-Pro-NH-resin],"ring closure, conversion by HPLC",[1]; 21-membered ring,90%
Fmoc-Ala-Glu-Leu-Glu-Arg-S5-His-Thr-Phe-S5-Leu-His-Gln-Arg-NH-resin,"ring closure, conversion by HPLC",[9]; 21-membered ring,92%
same,"ring closure, conversion by HPLC",[10]; 21-membered ring,70%
same,"ring closure, conversion by HPLC",[11]; 21-membered ring,80%
same,"ring closure, conversion by HPLC",[12]; 21-membered ring,85%
same,"ring closure, conversion by HPLC",[13]; 21-membered ring,88%
Fmoc-Gln-Ser-Gln-Gln-Thr-Phe-R8-Asn-Leu-Trp-Arg-Leu-Leu-S5-Gln-Asn-NH-resin,"ring closure, conversion by HPLC",[9]; 33-membered ring,85%
same,"ring closure, conversion by HPLC",[14]; 33-membered ring,80%
same,"ring closure, conversion by HPLC",[10]; 33-membered ring,70%
same,"ring closure, conversion by HPLC",[11]; 33-membered ring,75%
same,"ring closure, conversion by HPLC",[12]; 33-membered ring,90%
Fmoc-Ile-Thr-Phe-S5-Asp-Leu-Leu-S5-Tyr-Tyr-Gly-Pro-NH-resin,"ring closure, conversion by HPLC",[9]; 21-membered ring,80%
same,"ring closure, conversion by HPLC",[14]; 21-membered ring,70%
same,"ring closure, conversion by HPLC",[10]; 21-membered ring,75%
same,"ring closure, conversion by HPLC",[12]; 21-membered ring,90%
same,"ring closure, conversion by HPLC",[13]; 21-membered ring,81%
Fmoc-Val-Asn-R8-Lys-Lys-Ile-Leu-Gly-Lys-S5-Ile-Lys-Val-Val-Lys-NH-resin,"ring closure, conversion by HPLC",[9]; 33-membered ring,85%
same,"ring closure, conversion by HPLC",[14]; 33-membered ring,60%
same,"ring closure, conversion by HPLC",[10]; 33-membered ring,55%
same,"ring closure, conversion by HPLC",[11]; 33-membered ring,70%
same,"ring closure, conversion by HPLC",[12]; 33-membered ring,94%
same,"ring closure, conversion by HPLC",[13]; 33-membered ring,80%
